Measurements from patent US20240287138A1, “CYCLIC PEPTIDES FOR INHIBITING TNF RECEPTOR 1 ACTIVITY” (Merck Sharp & Dohme LLC, priority 2023, published 2024).
Numbered stars: 1 amine (or outer) side, 2 acyl side, 3 side chain; on linkers, the order of the positions; unused ones are H or OH. Bridge positions count the residues as written; N and C are the ends. Square brackets hold non-standard residues; d marks the D form. Peptide text beside a SMILES is read from it. * marks the point of attachment. Trp(βS-Me,7-OMe) = COc1cccc2c([C@H](C)[C@H](N)C(=O)O)c[nH]c12; Phe(4-SO2NH2) = N[C@@H](Cc1ccc(S(N)(=O)=O)cc1)C(=O)O; Phe(4-CH2COOH) = N[C@@H](Cc1ccc(CC(=O)O)cc1)C(=O)O; Trp(4-Cl) = N[C@@H](Cc1c[nH]c2cccc(Cl)c12)C(=O)O; Trp(7-CN) = N#Cc1cccc2c(C[C@H](N)C(=O)O)c[nH]c12; Trp(7-Cl) = N[C@@H](Cc1c[nH]c2c(Cl)cccc12)C(=O)O; Phe(4-CONH2) = NC(=O)c1ccc(C[C@H](N)C(=O)O)cc1; Phe(4-COOH) = N[C@@H](Cc1ccc(C(=O)O)cc1)C(=O)O; Trp(7-aza) = N[C@@H](Cc1c[nH]c2ncccc12)C(=O)O; X10 = O=C([C@H](Cc1ccnc2ccccc12)N[*:1])[*:2]; Phe(4-CH2NH2) = NCc1ccc(C[C@H](N)C(=O)O)cc1; dPro(cis-4-NH2) = N[C@H]1CN[C@@H](C(=O)O)C1; Pip(5R-OH) = O=C(O)[C@@H]1CC[C@@H](O)CN1; αMeW = C[C@](N)(Cc1c[nH]c2ccccc12)C(=O)O; X1 = O=C([C@@H]1CC[C@H](N[*:1])C1)[*:2]; Pip(4-aza) = O=C(O)[C@@H]1CNCCN1; 4Pal = N[C@@H](Cc1ccncc1)C(=O)O; NMeE = CN[C@@H](CCC(=O)O)C(=O)O; dHyp = O=C(O)[C@H]1C[C@H](O)CN1; NMeDab = CN[C@@H](CCN)C(=O)O; Pip = O=C(O)[C@@H]1CCCCN1; αMeS = C[C@](N)(CO)C(=O)O; Carboxymethyl = O=C(O)C*; Nle = CCCC[C@H](N)C(=O)O; Sar = CNCC(=O)O

target: T1, human soluble TNFR1 (sTNFR1) (Homo sapiens, UniProt P19438); assay: Human sTNFR1-peptide displacement assay (LanthaScreen Eu TR-FRET binding assay)
T1 construct: made in house; host or cells: Sf21 (baculovirus)
T1 sequence (P19438 with tags, fused parts or gaps): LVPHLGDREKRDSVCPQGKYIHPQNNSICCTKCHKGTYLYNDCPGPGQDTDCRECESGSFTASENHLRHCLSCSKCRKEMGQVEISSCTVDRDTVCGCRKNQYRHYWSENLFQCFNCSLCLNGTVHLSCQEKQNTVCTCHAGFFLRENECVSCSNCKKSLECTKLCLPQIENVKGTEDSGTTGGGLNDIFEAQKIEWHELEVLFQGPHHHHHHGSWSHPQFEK
In short: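 Readout is the 665/615 nm TR-FRET ratio (Eu anti-His donor, streptavidin-Alexa647 acceptor), normalized to DMSO and saturating displacer, fit by Morrison-based five-parameter logistic for Kd^app. His-tagged sTNFR1 (1-211) prebound to 100 nM biotinylated peptide SEQ ID NO.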

**Q.** How did the IC50 turn out when `CCCC[C@@H]1NC(=O)CSC[C@@H](C(N)=O)NC(=O)[C@H]([C@@H](C)c2c[nH]c3c(OC)cccc23)NC(=O)CN(C)C(=O)[C@H](Cc2ccc(O)cc2)NC(=O)[C@H](Cc2ccc(C(N)=O)cc2)NC(=O)[C@](C)(CO)NC(=O)[C@H](Cc2c[nH]c3c(Cl)cccc23)NC(=O)[C@H](Cc2ccncc2)NC(=O)[C@H](CC(N)=O)NC(=O)[C@H]2C[C@@H](N)CN2C(=O)[C@H](Cc2c[nH]c3ncccc23)NC(=O)[C@@H]2CNCCN2C(=O)[C@H](Cc2ccncc2)NC1=O` [SEQ ID NO. 219] ({CH2CO}-[Nle][4Pal][Pip(4-aza)][Trp(7-aza)][dPro(cis-4-NH2)]N[4Pal][Trp(7-Cl)][αMeS][Phe(4-CONH2)]Y[Sar][Trp(βS-Me,7-OMe)]C-NH2; thioether N-14) was run?
**A.** 0.3 nM

**Q.** And the Kd?
**A.** 0.15 nM

**Q.** For `C[C@@]1(CO)NC(=O)[C@H](Cc2c[nH]c3ncccc23)NC(=O)[C@H](Cc2ccncc2)NC(=O)[C@H](CC(N)=O)NC(=O)[C@H]2CCCN2C(=O)[C@H](Cc2ccnc3ccccc23)NC(=O)[C@H](CO)NC(=O)[C@H](Cc2ccncc2)NC(=O)[C@H](CCC(N)=O)NC(=O)CSC[C@@H](C(N)=O)NC(=O)[C@H](Cc2c[nH]c3cccc(Cl)c23)NC(=O)[C@@H]2CCCN2C(=O)[C@H](Cc2ccc(O)cc2)NC(=O)[C@H](Cc2ccc(C(=O)O)cc2)NC1=O` [SEQ ID NO. 278] ({CH2CO}-Q[4Pal]S[X10][dP]N[4Pal][Trp(7-aza)][αMeS][Phe(4-COOH)]YP[Trp(4-Cl)]C-NH2; thioether N-14), which IC50 is on record?
**A.** 8.69 nM

**Q.** Which results are given for `CCCC[C@@H]1NC(=O)CSC[C@@H](C(N)=O)NC(=O)[C@H]([C@@H](C)c2c[nH]c3c(OC)cccc23)NC(=O)CN(C)C(=O)[C@H](Cc2ccc(O)cc2)NC(=O)[C@H](Cc2ccc(C(=O)O)cc2)NC(=O)[C@](C)(CO)NC(=O)[C@H](Cc2c[nH]c3c(Cl)cccc23)NC(=O)[C@H](Cc2ccc(CC(=O)O)cc2)NC(=O)[C@H](CC(N)=O)NC(=O)[C@H](CCC(=O)O)N(C)C(=O)[C@H](Cc2c[nH]c3ccccc23)NC(=O)[C@@H]2CCCCN2C(=O)[C@H](Cc2ccncc2)NC1=O` [SEQ ID NO. 212] ({CH2CO}-[Nle][4Pal][Pip]W[NMeE]N[Phe(4-CH2COOH)][Trp(7-Cl)][αMeS][Phe(4-COOH)]Y[Sar][Trp(βS-Me,7-OMe)]C-NH2; thioether N-14)?
**A.** IC50: 0.9 nM; Kd: 0.73 nM

**Q.** How did the Kd turn out when `CCCC[C@@H]1NC(=O)[C@@H]2CC[C@@H](C2)NC(=O)[C@H]([C@@H](C)c2c[nH]c3c(OC)cccc23)NC(=O)CN(C)C(=O)[C@H](Cc2ccc(C(=O)O)cc2)NC(=O)[C@H](Cc2ccc(S(N)(=O)=O)cc2)NC(=O)[C@](C)(CO)NC(=O)[C@H](Cc2c[nH]c3c(C#N)cccc23)NC(=O)[C@H](Cc2ccc(C(=O)O)cc2)NC(=O)[C@H](CC(N)=O)NC(=O)[C@H]2C[C@H](OCC(=O)O)CN2C(=O)[C@H](Cc2c[nH]c3ncccc23)NC(=O)[C@@H]2CC[C@@H](O)CN2C(=O)[C@H](Cc2ccncc2)NC1=O` [SEQ ID NO. 4] (cyclo([4Pal][Pip(5R-OH)][Trp(7-aza)][dHyp](Carboxymethyl)N[Phe(4-COOH)][Trp(7-CN)][αMeS][Phe(4-SO2NH2)][Phe(4-COOH)][Sar][Trp(βS-Me,7-OMe)][X1][Nle])) was run?
**A.** 0.09 nM

**Q.** With `CCCC[C@@H]1NC(=O)CSC[C@@H](C(N)=O)NC(=O)[C@](C)(Cc2c[nH]c3ccccc23)NC(=O)CN(C)C(=O)[C@H](Cc2ccc(O)cc2)NC(=O)[C@H](Cc2ccc(CC(=O)O)cc2)NC(=O)[C@](C)(CO)NC(=O)[C@H](Cc2c[nH]c3c(Cl)cccc23)NC(=O)[C@H](Cc2ccncc2)NC(=O)[C@H](CC(N)=O)NC(=O)[C@H](CCC(=O)O)N(C)C(=O)[C@H](Cc2c[nH]c3ncccc23)NC(=O)[C@H](CO)NC(=O)[C@H](Cc2ccc(CN)cc2)NC1=O` [SEQ ID NO. 224] ({CH2CO}-[Nle][Phe(4-CH2NH2)]S[Trp(7-aza)][NMeE]N[4Pal][Trp(7-Cl)][αMeS][Phe(4-CH2COOH)]Y[Sar][αMeW]C-NH2; thioether N-14) as the compound, how does the IC50 read?
**A.** 1.7 nM

**Q.** For `CCCC[C@@H]1NC(=O)CSC[C@@H](C(N)=O)NC(=O)[C@](C)(Cc2c[nH]c3ccccc23)NC(=O)CN(C)C(=O)[C@H](Cc2ccc(O)cc2)NC(=O)[C@H](Cc2ccc(C(=O)O)cc2)NC(=O)[C@](C)(CO)NC(=O)[C@H](Cc2c[nH]c3c(Cl)cccc23)NC(=O)[C@H](Cc2ccncc2)NC(=O)[C@H](CC(N)=O)NC(=O)[C@H](CCC(=O)O)N(C)C(=O)[C@H](Cc2c[nH]c3ncccc23)NC(=O)[C@H](CCN)N(C)C(=O)[C@H](Cc2ccncc2)NC1=O` [SEQ ID NO. 231] ({CH2CO}-[Nle][4Pal][NMeDab][Trp(7-aza)][NMeE]N[4Pal][Trp(7-Cl)][αMeS][Phe(4-COOH)]Y[Sar][αMeW]C-NH2; thioether N-14), which IC50 is on record?
**A.** 2.63 nM
